Key:
[1] = target: T1, hAT1R (Homo sapiens, UniProt P30556); experiment: BRET β-arrestin2 biosensor assay, higher receptor expression (hAT1R 5 ng/well), HEK293 cells; assay type: cell-based; details: for EC50: High AT1R Expression
T1 sequence (P30556 1-359): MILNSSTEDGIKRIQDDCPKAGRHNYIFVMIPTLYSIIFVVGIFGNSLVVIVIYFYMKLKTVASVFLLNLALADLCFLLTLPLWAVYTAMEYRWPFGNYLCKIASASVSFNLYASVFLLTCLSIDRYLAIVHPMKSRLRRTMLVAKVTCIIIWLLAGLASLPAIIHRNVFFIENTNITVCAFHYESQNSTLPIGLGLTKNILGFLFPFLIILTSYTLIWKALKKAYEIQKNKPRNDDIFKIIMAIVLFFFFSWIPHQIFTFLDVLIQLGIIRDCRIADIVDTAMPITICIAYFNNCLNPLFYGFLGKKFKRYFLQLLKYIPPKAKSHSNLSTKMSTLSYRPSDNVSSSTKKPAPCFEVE

[2] = target: T1, hAT1R; experiment: cell-based; details: section of the 42nd table ending at r951, example numbering restarts after the DiscoveRx section; read-out: β-arrestin2 EC50
[3] = target: T1, hAT1R; experiment: cell-based; details: agonist mode; for EC50: read-out: BRET P63 EC50
[4] = target: T2, AGTR1 (Homo sapiens, UniProt P30556); experiment: DiscoveRx β-arrestin2 recruitment assay (enzyme complementation, Pathunter CHO-K1 AGTR1 β-arrestin cell line); assay type: cell-based; details: DiscoveRx β-arrestin2 recruitment; for DiscoveRx β-arrestin2 Ymax (%): maximal response
T2 construct: host or cells: Pathunter CHO-K1 AGTR1 β-arrestin cell line (CHO-K1)
T2 sequence (P30556 1-359): T1 sequence (P30556 1-359)
Procedure, shortened: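 Chemiluminescent enzyme-complementation read-out of β-arrestin2 recruitment to AGTR1 in engineered CHO-K1 cells after 90 min compound exposure at 37° C. Values are 4-parameter logistic EC50s in agonist mode, IC50s in antagonist mode, with efficacy relative to the maximal All response.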

[5] = target: T1, hAT1R; experiment: BRET Gq biosensor assay, agonist response, HEK293 cells; assay type: cell-based; details: section of the 42nd table directly before the BRET P63 section
Procedure, shortened: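 Agonist EC50 derived from a 4-parameter fit of BRET2 ratio (GFP 515 nm/Rluc 410 nm), scaled between unstimulated control and maximal AngII response. Readings taken 5 min after compound addition at room temperature, with 2 μM coelenterazine, in HEK293 cells expressing hAT1R, Gαq-Rluc, Gβ1 and GFP-Gγ1 (transfected two days earlier).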

Row | SMILES | BRET β-Arrestin2 High AT1R Expression Ymax (%) [1] | EC50 [1] | EC50 [2] | BRET P63 Ymax [3] | EC50 [3] | EC50 [4] | DiscoveRx β-arrestin2 Ymax (%) [4] | EC50 [5]
1 | CCCCC(=O)N(Cc1ccc(-c2cc(-c3cc(C)ccn3)ccc2-c2nn[nH]n2)cc1)C1(C(=O)O)CCCCC1 [Example 295] | 92.5% | 14 nM | 39 nM | 12.9% | 120 nM | 47.5 nM | 60.3% | 217 nM
2 | CCOc1nc2cccc(C(=O)O)c2n1Cc1ccc(-c2cc(-c3cc(OC)ccn3)ccc2-c2nn[nH]n2)cc1 [Example 310, 2-ethoxy-1-((5′-(4-methoxypyridin-2-yl)-2′-(2H-tetrazol-5-yl)-[1,1′-biphenyl]-4-yl)methyl)-1H-benzo[d]imidazole-7-carboxylic acid] |  |  | 10.9 nM | 29.1% | 7.2 nM | 14.9 nM | 51.4% | 35.3 nM
3 | CCOc1nc2cccc(C(=O)O)c2n1Cc1ccc(-c2cc(-c3ccccc3)ccc2-c2noc(=O)[nH]2)cc1 [Example 311, 2-ethoxy-1-((6′-(5-oxo-4,5-dihydro-1,2,4-oxadiazol-3-yl)-[1,1′:3′,1″-terphenyl]-4-yl)methyl)-1H-benzo[d]imidazole-7-carboxylic acid] | 92.0% | 1.5 nM | 4.2 nM | 13.2% | 3.6 nM | 3.9 nM | 77.6% | 18.1 nM
4 | CCOc1nc2cccc(C(=O)O)c2n1Cc1ccc(-c2cc(-c3ccccc3)ccc2-c2nn[nH]n2)cc1 [Example 312, 1-((6′-(2H-tetrazol-5-yl)-[1,1′:3′,1″-terphenyl]-4-yl)methyl)-2-ethoxy-1H-benzo[d]imidazole-7-carboxylic acid] | 91.8% | 2.6 nM | 5.8 nM | 9.4% | 17.2 nM | 22.5 nM | 79.9% | 20.7 nM
5 | CCOc1nc2cccc(C(=O)O)c2n1Cc1ccc(-c2cc(N3CCC[C@@H](C)C3)ccc2-c2nn[nH]n2)cc1 [Example 323] |  |  | 24.4 nM |  | > 10000 nM | 22.2 nM | 43.2% | > 100000 nM
6 | CCOc1nc2cccc(C(=O)O)c2n1Cc1ccc(-c2cc(N3CCC[C@H](C)C3)ccc2-c2nn[nH]n2)cc1 [Example 324] |  |  | 63.2 nM |  | > 10000 nM | 17.4 nM | 55.2% | 42.3 nM
7 | CCOc1nc2cccc(C(=O)O)c2n1Cc1ccc(-c2cc(-c3cnc4ccccc4c3)ccc2-c2nn[nH]n2)cc1 [Example 326, 2-ethoxy-1-((5′-(quinolin-3-yl)-2′-(2H-tetrazol-5-yl)-[1,1′-biphenyl]-4-yl)methyl)-1H-benzo[d]imidazole-7-carboxylic acid] |  |  | 24.7 nM |  | > 100000 nM | 9.5 nM | 45.9% | 16.2 nM
8 | CCOc1nc2cccc(C(=O)O)c2n1Cc1ccc(-c2cc(-c3cnn(C(F)F)c3)ccc2-c2nn[nH]n2)cc1 [Example 327, 1-((5′-(1-(difluoromethyl)-1H-pyrazol-4-yl)-2′-(2H-tetrazol-5-yl)-[1,1′-biphenyl]-4-yl)methyl)-2-ethoxy-1H-benzo[d]imidazole-7-carboxylic acid] |  |  | 33 nM | 10.8% | 26.9 nM | 9.4 nM | 64.2% | 22.1 nM
9 | CCOc1nc2cccc(C(=O)O)c2n1Cc1ccc(-c2cc(Oc3ccccc3)ccc2-c2nn[nH]n2)cc1 [Example 330, 2-Ethoxy-1-((5′-phenoxy-2′-(2H-tetrazol-5-yl)-[1,1′-biphenyl]-4-yl)methyl)-1H-benzo[d]imidazole-7-carboxylic acid] |  |  | 16.7 nM |  | > 10000 nM | 13.2 nM | 57.8% | 40.1 nM
10 | CCOc1nc2cccc(C(=O)O)c2n1Cc1ccc(-c2cc(Oc3cccc(F)c3)ccc2-c2nn[nH]n2)cc1 [Example 331] |  |  | 8.4 nM |  | > 10000 nM | 13.2 nM | 44.5% | 26.4 nM
11 | CCOc1nc2cccc(C(=O)O)c2n1Cc1ccc(-c2cc(Oc3cccc(OC)c3)ccc2-c2nn[nH]n2)cc1 [Example 332] |  |  | 12.1 nM |  | > 10000 nM | 24.1 nM | 30.6% | 106 nM
12 | CCOc1nc2cccc(C(=O)O)c2n1Cc1ccc(-c2cc(Oc3cccnc3)ccc2-c2nn[nH]n2)cc1 [Example 333] |  |  | 11.3 nM |  | > 10000 nM | 10 nM | 67.8% | 17.8 nM
13 | CCOc1nc2cccc(C(=O)O)c2n1Cc1ccc(-c2cc(Oc3ccccc3F)ccc2-c2nn[nH]n2)cc1 [Example 334] |  |  | 5.9 nM | 13.9% | 15.7 nM | 10.8 nM | 73.5% | 41.3 nM
14 | CCOc1nc2cccc(C(=O)O)c2n1Cc1ccc(-c2cc(Oc3cccc(OC(F)(F)F)c3)ccc2-c2nn[nH]n2)cc1 [Example 335] |  |  | 6 nM |  | > 10000 nM | 36.1 nM | 22.7% | 721 nM
15 | CCOc1nc2cccc(C(=O)O)c2n1Cc1ccc(-c2cc(Oc3ccc(F)cc3)ccc2-c2nn[nH]n2)cc1 [Example 336] |  |  | 12.4 nM |  | > 10000 nM | 16.4 nM | 61.4% | 47.2 nM
16 | CCOc1nc2cccc(C(=O)O)c2n1Cc1ccc(-c2cc(Oc3cnccc3C)ccc2-c2nn[nH]n2)cc1 [Example 337] |  |  | 631 nM |  | > 10000 nM | 40.6 nM | 85.6% | 55.8 nM
17 | CCOc1nc2cccc(C(=O)O)c2n1Cc1ccc(-c2cc(-n3ccc(C(F)(F)F)n3)ccc2-c2nn[nH]n2)cc1 [Example 338] |  |  | 16.3 nM |  | > 10000 nM | 17.8 nM | 68.9% | 30.8 nM
18 | CCOc1nc2cccc(C(=O)O)c2n1Cc1ccc(-c2cc(-n3cnc4ccccc43)ccc2-c2nn[nH]n2)cc1 [Example 339] |  |  | 12.8 nM |  | > 10000 nM | 10.6 nM | 58.0% | 52.1 nM
19 | CCCCc1nc(Cl)c(C(=O)O)n1Cc1ccc(-c2cc(N3CCC[C@H](C)C3)ccc2-c2nn[nH]n2)cc1 [Example 418, (S)-2-butyl-4-chloro-1-((5′-(3-methylpiperidin-1-yl)-2′-(2H-tetrazol-5-yl)-[1,1′-biphenyl]-4-yl)methyl)-1H-imidazole-5-carboxylic acid] |  |  | 154 nM |  | > 10000 nM | 67.8 nM | 31.2% | 478 nM
20 | CCCCc1nc(Cl)c(C(=O)O)n1Cc1ccc(-c2cc(N3CCC[C@@H](C)C3)ccc2-c2nn[nH]n2)cc1 [Example 419, (R)-2-butyl-4-chloro-1-((5′-(3-methylpiperidin-1-yl)-2′-(2H-tetrazol-5-yl)-[1,1′-biphenyl]-4-yl)methyl)-1H-imidazole-5-carboxylic acid] |  |  | 85.2 nM |  | > 10000 nM | 121 nM | 33.9% | 228 nM
21 | CCCc1nc(CC)c(C(=O)O)n1Cc1ccc(-c2cc(-c3ccccc3)ccc2-c2nn[nH]n2)c(C)c1 [Example 425] |  |  | 47.4 nM |  | > 10000 nM | 27.3 nM | 54.2% | 105 nM
22 | CCCc1nc(CC)c(C(N)=O)n1Cc1ccc(-c2cc(-c3ccccc3)ccc2-c2nn[nH]n2)c(C)c1 [Example 426] |  |  | 49.6 nM |  | > 10000 nM | 34.2 nM | 52.5% | 86 nM
23 | CCCCc1nc(Cl)c(C(=O)O)n1Cc1ccc(-c2cc(Oc3ccccn3)ccc2-c2nn[nH]n2)cc1 [Example 427, 2-Butyl-4-chloro-1-((5′-(pyridin-2-yloxy)-2′-(2H-tetrazol-5-yl)-[1,1′-biphenyl]-4-yl)methyl)-1H-imidazole-5-carboxylic acid] |  |  | > 10000 nM |  | > 10000 nM | 89.9 nM | 19.6% | 575 nM
